Patent publication US10472341B2, “Bicyclic tetrahydrothiazepine derivatives useful for the treatment of neoplastic and/or infectious diseases” (APEIRON BIOLOGICS AG, priority 2015, dated 2019)

Legend:
[1] = tested on: PBMCs & tumor cell lines (K562, Panc1, BxPc3, HT-29, A549, HTB46, HTB47, A375, M21, SKBR3, CRL2505); experiment: PBMCs alone or in co-culture with tumor cells of diverse origin: cytokines and granzyme; assay type: cell-based, human; details: for Granzyme / IFN-gamma / IL-2: 3 μM
Experimental: Isolated PBMCs, NK cells or CD8 positive cells were plated in Xvivo medium at 1.5*10^5 cells per in 96 well culture plates in the presence of 0.3*10^4 tumor cells where indicated. Cytokine secretion was determined by ELISA, immune cell activation (using Beckman-Coulter Abs CD25-PC5, CD69-PC7), cell viability and numbers by flow cytometry (Beckman-Coulter FC500 or Gallios) using 7-AAD exclusion as criterion for living cells. The tumor cell lines M21 and K562 represent two widely used tumor lines of melanoma and leukemia origin, respectively. However, tumor cells are known to employ different mechanisms to suppress immune functions, therefore it was investigated if the effects of compounds on immune cell activities against tumor cells can be generalized to a wide array of tumor cells of very diverse origins from different types of tumors. PBMCs were isolated and incubated with and without compounds, either alone or in co-culture with different tumor cells.

[2] = tested on: non-stimulated PBMCs; experiment: Non-stimulated PBMCs: cytokine secretion and signs of T-cell activation; assay type: cell-based, human
From the text: This is an important finding for compounds that shall selectively act on T cells which have been activated by presence of antigen from pathogens or tumors, but shall not lead to an unwanted general activation of all T cells of a patient.

[3] = tested on: aCD3/aCD28-stimulated human CD4+-T-cells; experiment: IL-2 production and activation markers in aCD3/aCD28 stimulated isolated human CD4+-T-cells; assay type: cell-based; details: IL-2 production at 3 μM compound
Summary of the method: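 CD4+ T cells isolated from buffy-coat PBMCs by microbeads were plated in Xvivo medium (1.5*10^5 cells/well) and stimulated with anti-CD3/28 mAbs plus compound. IL-2 measured by ELISA in supernatants at 24 h or 48 h; CD25 and proliferation by flow cytometry, CD69 at 24 h. Activity classes based on IL-2 at 3 μM compound.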

[4] = tested on: immune cells & anti-GD2-antibodies bound on M21 melanoma cells; experiment: Immune cells stimulated by anti-GD2-antibody bound on M21 melanoma cells: TNF-alpha, activated NK cells; assay type: cell-based, human
Experimental: Isolated PBMCs, NK cells or CD8 positive cells were plated in Xvivo medium at 1.5*10^5 cells per in 96 well culture plates in the presence of 0.3*10^4 tumor cells where indicated. Cytokine secretion was determined by ELISA, immune cell activation (using Beckman-Coulter Abs CD25-PC5, CD69-PC7), cell viability and numbers by flow cytometry (Beckman-Coulter FC500 or Gallios) using 7-AAD exclusion as criterion for living cells. […] Antibodies that are bound to pathogens or pathogen-infected cells trigger activation of immune cells via Fc-receptors, that are expressed particularly on NK cells and myeloid cells. This mechanism is also utilized for cancer therapies when therapeutic antibodies against antigens which are preferentially expressed on cancer cells are administrated to patients which in turn recruit and activate immune cells to directly attack cancer cells. The GD2-antigen is strongly expressed on cancer cells of particular origins (among neuroblastoma and melanoma) and is therefore developed clinically as anti-cancer therapy. For M21 melanoma cells, GD2 is the only antigen that has been characterized to be accessible as tumor antigen. Therefore, an anti-GD2-antibody that was available in clinically grade quality was employed to test whether compounds can enhance the Fc-receptor mediated activation of immune cells to tumor-cell bound therapeutic antibodies.

[5] = PBMC & M21 tumor cells & anti-GD2 Ab high concentration, 0.3 μM
[6] = PBMC & M21 tumor cells & anti-GD2 Ab high concentration, 1 μM
[7] = PBMC & M21 tumor cells & anti-GD2 Ab high concentration, 3 μM
[8] = PBMC & M21 tumor cells & anti-GD2 Ab high concentration, 10 μM
[9] = PBMC & M21 tumor cells & anti-GD2 Ab low concentration, 0.3 μM
[10] = PBMC & M21 tumor cells & anti-GD2 Ab low concentration, 1 μM
[11] = PBMC & M21 tumor cells & anti-GD2 Ab low concentration, 3 μM
[12] = PBMC & M21 tumor cells & anti-GD2 Ab low concentration, 10 μM
[13] = PBMC & M21 tumor cells only, 0.3 μM
[14] = PBMC & M21 tumor cells only, 1 μM
[15] = PBMC & M21 tumor cells only, 3 μM
[16] = PBMC & M21 tumor cells only, 10 μM

Cl.N[C@H]1CSc2cc(F)c(C(=O)NCCCC(F)(F)F)cc2N(Cc2ccc(Cl)cc2)C1=O [Example 40, (3R)-3-amino-5-[(4-chlorophenyl)methyl]-8-fluoro-4-oxo-N-(4,4,4-trifluorobutyl)-2,3,4,5-tetrahydro-1,5-benzothiazepine-7-carboxamide hydrochloride]
Granzyme ([1]; PBMC & A375): 0.053 ng/mL | IFN-gamma ([1]; PBMC & A375): 0.142 ng/mL | IL-2 ([1]; PBMC & A375): 0.278 ng/mL | Granzyme ([1]; PBMC & A549): 0.020 ng/mL | IFN-gamma ([1]; PBMC & A549): 0.214 ng/mL | IL-2 ([1]; PBMC & A549): 0.018 ng/mL | Granzyme ([1]; PBMC & BxPc3): 0.008 ng/mL | IFN-gamma ([1]; PBMC & BxPc3): 0.088 ng/mL | IL-2 ([1]; PBMC & BxPc3): 0.092 ng/mL | Granzyme ([1]; PBMC & CRL2505): 0.780 ng/mL | IFN-gamma ([1]; PBMC & CRL2505): 0.663 ng/mL | IL-2 ([1]; PBMC & CRL2505): 0.012 ng/mL | Granzyme ([1]; PBMC & HT-29): 0.003 ng/mL | IFN-gamma ([1]; PBMC & HT-29): 0.022 ng/mL | IL-2 ([1]; PBMC & HT-29): 0.033 ng/mL | Granzyme ([1]; PBMC & HTB46): 0.404 ng/mL | IFN-gamma ([1]; PBMC & HTB46): 0.665 ng/mL | IL-2 ([1]; PBMC & HTB46): 0.168 ng/mL | Granzyme ([1]; PBMC & HTB47): 0.072 ng/mL | IFN-gamma ([1]; PBMC & HTB47): 0.277 ng/mL | IL-2 ([1]; PBMC & HTB47): 0.075 ng/mL | Granzyme ([1]; PBMC & K562): 0.011 ng/mL | IFN-gamma ([1]; PBMC & K562): 0.000 ng/mL | IL-2 ([1]; PBMC & K562): 0.000 ng/mL | Granzyme ([1]; PBMC & M21): 0.001 ng/mL | IFN-gamma ([1]; PBMC & M21): 0.000 ng/mL | IL-2 ([1]; PBMC & M21): 0.037 ng/mL | Granzyme ([1]; PBMC & Panc1): 0.005 ng/mL | IFN-gamma ([1]; PBMC & Panc1): 0.000 ng/mL | IL-2 ([1]; PBMC & Panc1): 0.013 ng/mL | Granzyme ([1]; PBMC & SKBR3): 0.001 ng/mL | IFN-gamma ([1]; PBMC & SKBR3): 0.000 ng/mL | IL-2 ([1]; PBMC & SKBR3): 0.005 ng/mL | Granzyme ([1]; PBMC only): 0.001 ng/mL | IFN-gamma ([1]; PBMC only): 0.000 ng/mL | IL-2 ([1]; PBMC only): 0.000 ng/mL | secretion of cytokines (IL-2, IFN-gamma) and granzyme ([1]; PBMCs in co-culture with diverse tumor cell lines): enhanced secretion of cytokines and granzyme strongly specifically upon tumor cell contact in diverse tumor cell lines | enhancement of cytokine and granzyme secretion ([1]; PBMCs in the absence of tumor cells): such effect was not detected in the absence of tumor cells | cytokine secretion or other signs of T-cell activation [2]: did not enhance cytokine secretion or other signs of T-cell activation | Activity Class CD4+ [3]: B (IL-2 production at 3 μM compound concentration between 2-10 ng/mL) | TNF-alpha [4, 5]: 106.30 pg/mL | strongly activated NK cells [4, 5]: 23.55 % CD25+CD69+ | TNF-alpha [4, 6]: 142.98 pg/mL | strongly activated NK cells [4, 6]: 32.63 % CD25+CD69+ | TNF-alpha [4, 7]: 192.34 pg/mL | strongly activated NK cells [4, 7]: 42.50 % CD25+CD69+ | TNF-alpha [4, 8]: 257.96 pg/mL | strongly activated NK cells [4, 8]: 42.22 % CD25+CD69+ | TNF-alpha [4, 9]: 36.53 pg/mL | strongly activated NK cells [4, 9]: 6.92 % CD25+CD69+ | TNF-alpha [4, 10]: 55.72 pg/mL | strongly activated NK cells [4, 10]: 11.88 % CD25+CD69+ | TNF-alpha [4, 11]: 93.25 pg/mL | strongly activated NK cells [4, 11]: 17.22 % CD25+CD69+ | TNF-alpha [4, 12]: 114.88 pg/mL | strongly activated NK cells [4, 12]: 20.25 % CD25+CD69+ | TNF-alpha [4, 13]: 17.47 pg/mL | strongly activated NK cells [4, 13]: 0.75 % CD25+CD69+ | TNF-alpha [4, 14]: 17.59 pg/mL | strongly activated NK cells [4, 14]: 1.10 % CD25+CD69+ | TNF-alpha [4, 15]: 28.95 pg/mL | strongly activated NK cells [4, 15]: 2.40 % CD25+CD69+ | TNF-alpha [4, 16]: 38.00 pg/mL | strongly activated NK cells [4, 16]: 2.19 % CD25+CD69+ | reactivity of immune cells to anti-GD2-antibodies bound on M21 melanoma cells ([4]; cytokine secretion, NK cell activation): enhanced reactivity of immune cells to anti-GD2-antibodies bound on M21 melanoma cells, resulting in increased secretion of cytokine and activation of NK cells
